Several values for one entry are separate records, joined by “and”; a condition that tells them apart may be missing. Equal entries are not always repeated.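 The compound was tested at five concentrations on cells cultured in 96-well plates, with a 48-hour exposure period. GI50: concentration for 50% inhibition of growth. TGI: total growth inhibition.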
Tests used:
Assay in all cases: NCI-60 cell line screen, 48 h
[1] = test system: LOX IMVI melanoma
[2] = test system: OVCAR-8 ovarian
[3] = test system: DU-145 prostate
[4] = test system: SK-MEL-28 melanoma
[5] = test system: 786-0 renal
[6] = test system: HCT-15 colon
[7] = test system: KM12 colon
[8] = test system: SK-MEL-2 melanoma
[9] = test system: SK-MEL-5 melanoma
[10] = test system: SK-OV-3 ovarian
[11] = test system: HL-60(TB) leukemia
[12] = test system: HOP-92 NSCLC
[13] = test system: IGROV1 ovarian
[14] = test system: RXF 393 renal
[15] = test system: ACHN renal
[16] = test system: CAKI-1 renal
[17] = test system: M14 melanoma
[18] = test system: HOP-62 NSCLC
[19] = test system: OVCAR-5 ovarian
[20] = test system: RPMI-8226 leukemia
[21] = test system: NCI/ADR-RES ovarian
[22] = test system: SW-620 colon
[23] = test system: CCRF-CEM leukemia
[24] = test system: HCC-2998 colon
[25] = test system: MOLT-4 leukemia
[26] = test system: SR leukemia
[27] = test system: NCI-H226 lung
[28] = test system: TK-10 renal
[29] = test system: MDA-MB-231 breast
[30] = test system: T-47D breast
[31] = test system: SF-295 CNS
[32] = test system: UO-31 renal
[33] = test system: NCI-H522 lung
[34] = test system: A498 renal
[35] = test system: NCI-H23 lung
[36] = test system: EKVX NSCLC
[37] = test system: A549 NSCLC
[38] = test system: SF-268 CNS
[39] = test system: OVCAR-4 ovarian
[40] = test system: HCT-116 colon
[41] = test system: NCI-H460 lung
[42] = test system: SNB-19 CNS
[43] = test system: PC-3 prostate
[44] = test system: MDA-N
[45] = test system: MCF7 breast
[46] = test system: OVCAR-3 ovarian
[47] = test system: MALME-3M melanoma
[48] = test system: COLO 205 colon
[49] = test system: UACC-257 melanoma
[50] = test system: SNB-75 CNS
[51] = test system: SN12C renal
[52] = test system: HT29 colon
[53] = test system: UACC-62 melanoma
[54] = test system: BT-549 breast
[55] = test system: MDA-MB-435
[56] = test system: U251 CNS
[57] = test system: SF-539 CNS
[58] = test system: K-562 leukemia
[59] = test system: HS 578T breast

SMILES: CC(C)C[C@H](NC(=O)[C@@H](N)Cc1cccc2ccccc12)B(O)O
- GI50 [1]: 0.184 µM
- GI50 [2]: 1.62 µM
- GI50 [3]: 0.0736 µM
- TGI [3]: 6.14 µM and 1.15 µM
- GI50 [4]: 0.186 µM
- GI50 [5]: 0.207 µM
- GI50 [6]: 0.35 µM
- GI50 [7]: 0.546 µM
- GI50 [8]: 0.598 µM
- GI50 [9]: 0.176 µM
- GI50 [10]: 2 µM
- GI50 [11]: 0.0789 µM and 0.0291 µM
- TGI [11]: 50 µM and > 100 µM
- GI50 [12]: 0.0288 µM
- GI50 [13]: 0.836 µM
- GI50 [14]: 0.136 µM
- GI50 [15]: < 0.01 µM
- TGI [15]: 50 µM and > 100 µM
- GI50 [16]: 0.225 µM
- GI50 [17]: 0.206 µM and 0.0374 µM
- GI50 [18]: 0.831 µM
- GI50 [19]: 0.174 µM
- TGI [20]: < 0.0272 µM
- GI50 [21]: 1.39 µM and 0.183 µM
- GI50 [22]: 0.231 µM
- GI50 [23]: 0.0724 µM and < 0.01 µM
- GI50 [24]: 0.021 µM
- GI50 [25]: 0.21 µM
- TGI [26]: 0.0653 µM
- TGI [27]: < 0.0186 µM
- GI50 [28]: 0.439 µM
- GI50 [29]: 0.798 µM
- GI50 [30]: 0.432 µM
- GI50 [31]: 0.313 µM
- GI50 [32]: 0.739 µM
- TGI [33]: 0.741 µM
- GI50 [34]: 0.202 µM
- GI50 [35]: 0.245 µM
- GI50 [36]: 1.23 µM and 0.167 µM
- TGI [36]: 5 µM and 3.13 µM
- GI50 [37]: 0.926 µM
- GI50 [38]: 0.246 µM and 0.0326 µM
- GI50 [39]: 0.0384 µM
- GI50 [40]: 0.138 µM
- GI50 [41]: 1.36 µM
- GI50 [42]: 0.11 µM
- TGI [42]: 50 µM and > 100 µM
- GI50 [43]: 1.12 µM
- GI50 [44]: < 0.01 µM
- GI50 [45]: 0.389 µM
- TGI [45]: 50 µM
- GI50 [46]: 0.187 µM
- GI50 [47]: 0.156 µM
- TGI [47]: 0.426 µM and 0.0707 µM
- GI50 [48]: 1.92 µM
- GI50 [49]: 0.315 µM
- TGI [49]: 1.12 µM and 0.114 µM
- GI50 [50]: 1.07 µM
- GI50 [51]: 1.39 µM
- GI50 [52]: 0.216 µM
- GI50 [53]: 0.425 µM
- TGI [53]: 1.28 µM and 0.148 µM
- GI50 [54]: 0.87 µM
- GI50 [55]: 0.114 µM
- GI50 [56]: 0.392 µM
- GI50 [57]: 0.178 µM

SMILES: CCOc1ccc(NC(=O)/C=C/c2ccco2)cc1
- TGI [1]: > 100 µM
- TGI [2]: > 100 µM
- TGI [3]: > 100 µM
- TGI [4]: > 100 µM
- TGI [5]: > 100 µM
- TGI [6]: > 100 µM
- TGI [58]: > 100 µM
- TGI [7]: > 100 µM
- TGI [8]: > 100 µM
- TGI [9]: > 100 µM
- TGI [10]: > 100 µM
- TGI [11]: 44.5 µM
- TGI [13]: > 100 µM
- TGI [14]: > 100 µM
- TGI [15]: > 100 µM
- TGI [16]: > 100 µM
- TGI [17]: > 100 µM
- TGI [19]: > 100 µM
- TGI [20]: > 100 µM
- TGI [21]: > 100 µM
- TGI [22]: > 100 µM
- TGI [23]: > 100 µM
- TGI [24]: > 100 µM
- TGI [25]: > 100 µM
- TGI [26]: > 100 µM
- TGI [27]: > 100 µM
- TGI [28]: > 100 µM
- TGI [29]: > 100 µM
- TGI [31]: > 100 µM
- TGI [32]: > 100 µM
- TGI [33]: > 100 µM
- TGI [34]: > 100 µM
- TGI [35]: > 100 µM
- TGI [36]: > 100 µM
- TGI [37]: > 100 µM
- TGI [38]: > 100 µM
- TGI [40]: > 100 µM
- TGI [41]: > 100 µM
- TGI [42]: > 100 µM
- TGI [43]: > 100 µM
- TGI [59]: > 100 µM
- TGI [44]: > 100 µM
- TGI [45]: > 100 µM
- TGI [47]: > 100 µM
- TGI [48]: > 100 µM
- TGI [49]: > 100 µM
- TGI [50]: > 100 µM
- TGI [51]: > 100 µM
- TGI [52]: > 100 µM
- TGI [53]: > 100 µM
- TGI [54]: > 100 µM
- TGI [55]: 22 µM
- TGI [56]: > 100 µM
- TGI [57]: > 100 µM

SMILES: COc1ccc(C)cc1NC(=S)N/N=C/c1ccco1
- TGI [1]: > 100 µM
- TGI [2]: > 100 µM
- TGI [3]: > 100 µM
- TGI [4]: > 100 µM
- TGI [5]: > 100 µM
- TGI [6]: > 100 µM
- TGI [58]: > 100 µM
- TGI [7]: > 100 µM
- TGI [8]: 39.9 µM
- TGI [9]: 32.9 µM
- TGI [10]: > 100 µM
- TGI [11]: 86.2 µM
- TGI [12]: > 100 µM
- TGI [13]: > 100 µM
- TGI [14]: > 100 µM
- TGI [15]: > 100 µM
- TGI [16]: > 100 µM
- TGI [17]: > 100 µM
- TGI [18]: > 100 µM
- TGI [19]: > 100 µM
- TGI [20]: 71.8 µM
- TGI [21]: > 100 µM
- TGI [22]: > 100 µM
- TGI [23]: > 100 µM
- TGI [24]: > 100 µM
- TGI [25]: > 100 µM
- TGI [26]: > 100 µM
- TGI [27]: > 100 µM
- TGI [30]: > 100 µM
- TGI [31]: > 100 µM
- TGI [32]: > 100 µM
- TGI [33]: 69.2 µM
- TGI [34]: > 100 µM
- TGI [35]: > 100 µM
- TGI [36]: 64.3 µM
- TGI [37]: > 100 µM
- TGI [38]: > 100 µM
- TGI [39]: > 100 µM
- TGI [40]: > 100 µM
- TGI [41]: > 100 µM
- TGI [42]: > 100 µM
- TGI [43]: > 100 µM
- TGI [59]: > 100 µM
- TGI [44]: 68.7 µM
- TGI [45]: > 100 µM
- TGI [46]: > 100 µM
- TGI [47]: > 100 µM
- TGI [48]: 65.5 µM
- TGI [49]: > 100 µM
- TGI [50]: > 100 µM
- TGI [51]: > 100 µM
- TGI [52]: > 100 µM
- TGI [53]: > 100 µM
- TGI [54]: > 100 µM
- TGI [55]: 92.2 µM
- TGI [57]: > 100 µM

Source: PubChem BioAssay (NCI)
